Data set [1] is described as follows: Compound cytotoxicity in uninfected cells (same assay plate). The format is cell-based. Particulars: human, uninfected CEM-SS cells; read-out: Virus Replication CC50. Here is the method:
(§1) All samples were tested in duplicate. The HIV-1 virus strain RF was used to infect CEM-SS cells. Compound cytotoxicity was measured in the same assay plate using uninfected cells. Regression analysis was used to estimate the effective concentration (EC50) as well as the cytotoxic concentration (CC50).

Data set [2] deals with T1, HIV-1 RNase H (p66/p51 HIV-1 RT) (Human immunodeficiency virus type 1 group M subtype B, UniProt P04585).
T1 construct: RT is a p66/p51 heterodimer comprised of asymmetrically-organized subunits processed from the 165 kDa gag/pol polyprotein precursor; (His)6; made in house; host or cells: Escherichia coli
The experiment in a line: High throughput RNase H assay on sequence-independent RNA/DNA hybrid. Particulars: read-out: In vitro IC50. The format is biochemical. Here is the method: IC50 values were determined as previously reported (Budihas, S. R., et al., Nucleic Acids Res., 33(4):1249-56 (2005)), using an 18-nucleotide 3′-flourescein-labeled RNA annealed to a complementary 18-nucleotide 5′-dabsyl-labeled DNA. […] The reaction was initiated by adding 1 μl of 100 mM MgCl2 to 9 μl of mixture containing 4 ng enzyme, 200 nM substrate, 20 μM α-hydroxytropolones in 50 mM Tris, pH 8.0, 80 mM KCl, 2 mM DTT, and 10% DMSO at 37° C., and quenched with 10 μl of a gel-loading buffer after 10 minutes. Hydrolysis products were fractionated by denaturing polyacrylamide gel electrophoresis and visualized by fluorescent imaging (Typhoon Trio+, GE Healthcare, Piscataway, N.J.). […]

Data set [3] relates to HIV-1 virus strain RF in CEM-SS cells. In words: HIV-1 cytopathicity assay. Particulars: for EC50: read-out: Virus Replication EC50; for Virus Replication EC50, protective effect class: tested up to 50 μM. The format is cell-based. Here is the method:
This assay was conducted as previously reported (Weislow, O, S., et al., J. Natl. Cancer Inst., 81(8):577-86 (1989)). Samples were dissolved in DMSO at 10 mM and diluted to a final high concentration of 50 μM in the 96-well assay plate, with 2-fold dilutions made to a low concentration of about 0.78 μM. All samples were tested in duplicate. The HIV-1 virus strain RF was used to infect CEM-SS cells. Compound cytotoxicity was measured in the same assay plate using uninfected cells. Regression analysis was used to estimate the effective concentration (EC50) as well as the cytotoxic concentration (CC50).
On the technique in general: Damage to the host cells serves as the signal in cytopathic effect assays.

In another data set the target is T2, HIV-1 RT RNase H (Human immunodeficiency virus type 1 group M subtype B, UniProt P04585).
T2 construct: RT is a p66/p51 heterodimer comprised of asymmetrically-organized subunits processed from the 165 kDa gag/pol polyprotein precursor; (His)6; made in house; host or cells: Escherichia coli
In words: Cleavage of the HIV-1 polypurine tract (PPT) primer, PPT/U3 junction. The format is biochemical. Particulars: 20 μM inhibitor. The procedure: FIG. 2A depicts a schematic model of RNA/DNA substrate, indicating the RNase H cleavage site at the PPT/U3 junction (< >). The PPT is indicated by the shaded box. FIG. 2B depicts the quantification of PPT cleavage data. All inhibitors were evaluated at 20 μM.
IC50 values were determined as previously reported (Budihas, S. R., et al., Nucleic Acids Res., 33(4):1249-56 (2005)), using an 18-nucleotide 3′-flourescein-labeled RNA annealed to a complementary 18-nucleotide 5′-dabsyl-labeled DNA. […] The reaction was initiated by adding 1 μl of 100 mM MgCl2 to 9 μl of mixture containing 4 ng enzyme, 200 nM substrate, 20 μM α-hydroxytropolones in 50 mM Tris, pH 8.0, 80 mM KCl, 2 mM DTT, and 10% DMSO at 37° C., and quenched with 10 μl of a gel-loading buffer after 10 minutes. Hydrolysis products were fractionated by denaturing polyacrylamide gel electrophoresis and visualized by fluorescent imaging (Typhoon Trio+, GE Healthcare, Piscataway, N.J.).
Since the high-throughput RNase H assay examines non-specific, “polymerase-independent” RNase H activity defined by the spatial separation of the DNA polymerase and RNase H active site of HIV-1 RT (Gopalakrishnan, V., et al., Proc. Natl. Acad. Sci. USA, 89(22):10763-7 (1992)), an examination of whether α-hydroxytropolones altered cleavage specificity on a more biologically-relevant substrate, namely the polypurine tract (PPT) primer, which must be processed from the RNA/DNA replication intermediate to initiate (+) strand DNA synthesis.

The next data set has as its system uninfected CEM-SS cells. In words: Compound cytotoxicity in uninfected cells (same assay plate). Particulars: for cytotoxicity (in words): up to a concentration of 50 μM; for CC50: uninfected CEM-SS cells, read-out: Virus Replication CC50. The format is cell-based. Here is the method:
as §1

Where [4] appears, read: HIV-1 RNase H enzymatic activity, sequence-independent RNA/DNA hybrid.
Setting [5] is: Human immunodeficiency virus 1, CEM-SS, HIV-1 RF.

Where two headings read alike, the source gives them in different places. A value given as a limit tells only on which side of the number the result lay.

`Cc1cc(O)c(=O)c(O)c2c1CC(C(C)(O)CN1CCCCC1)CC2` (mixture of isomers) [Compound 1, 5,7-Dihydroxy-2-(1-hydroxy-1-methyl-2-piperidin-1-yl-ethyl)-9-methyl-1,2,3,4-tetrahydro benzocyclohepten-6-one]: the CC50 (usually the concentration that lowers cell viability or growth by half) in data set [1] was over 50 µM. Also, the half-inhibitory concentration (IC50) (commonly the concentration that gives 50% inhibition) in data set [2] (setting [4]) was determined as 0.93 µM. For the same compound, in data set [3] (HIV-1 RF), the “protection against the cytopathic effect of the virus (in words)” value (from here on “protection against the cytopathic effect”) is “showed protection”. Further, the 50% effective concentration (EC50) (commonly the concentration at which the effect is half-maximal) in data set [3] (setting [5]) is 10.2 µM.
In the case of `CCN(CC)CC(C)(O)C1CCc2c(c(C)cc(O)c(=O)c2O)C1` (mixture of isomers) [Compound 3, 2-(2-Diethylamino-1-hydroxy-1-methyl-ethyl)-5,7-dihydroxy-9-methyl-1,2,3,4-tetrahydrobenzocyclohepten-6-one], the CC50 in data set [1] is over 50 µM. For the same compound, the half-maximal inhibitory concentration (IC50) in data set [2] (setting [4]) was 0.49 µM. In addition, in data set [3] (HIV-1 RF), the “protection against the cytopathic effect” value is “slight protection” and the “Virus Replication EC50, protective effect class” value (“Virus Replication EC50” below) is recorded as <50% (<50%=protective effect less than 50% of control, i.e. weak activity). Moreover, the “inhibition of PPT/U3 cleavage (in words)” value at HIV-1 RT RNase H is reported as “ineffective”.
As for `Cc1cc(O)c(=O)c(O)c2c1CC(C(C)(O)CNCc1ccccc1F)CC2` (mixture of isomers) [Compound 4, 2-[2-(2-Fluoro-benzylamino)-1-hydroxy-1-methyl-ethyl]-5,7-dihydroxy-9-methyl-1,2,3,4-tetrahydrobenzocyclohepten-6-one], the CC50 in data set [1] is over 50 µM. Moreover, the “cytotoxicity (in words)” value in the data set with uninfected CEM-SS cells is “not cytotoxic”. Besides, the 50% inhibitory concentration (IC50) in data set [2] (setting [4]) amounted to 1.4 µM. The “protection against the cytopathic effect” value in data set [3] (HIV-1 RF) was “no protection”. Besides, the “inhibition of PPT/U3 cleavage (in words)” value against HIV-1 RT RNase H is “less active”.
On to `CCSCC(C)(O)C1CCc2c(c(C)cc(O)c(=O)c2O)C1` (mixture of isomers) [Compound 6, 2-(2-Ethylthio-1-hydroxy-1-methyl-ethyl)-5,7-dihydroxy-9-methyl-1,2,3,4-tetrahydrobenzocyclohepten-6-one], for which, in data set [1], the CC50 amounted to 25.8 µM. In data set [2] (setting [4]), the concentration for half-maximal inhibition (IC50) worked out at 0.41 µM. Besides, in data set [3] (HIV-1 RF), the “protection against the cytopathic effect” value is recorded as “slight protection” and the “Virus Replication EC50” value is <50% (<50%=protective effect less than 50% of control, i.e. weak activity).
On to `Cc1cc(O)c(=O)c(O)c2c1CC(C(C)(O)CSc1ccccc1)CC2` (mixture of isomers) [Compound 7, 5,7-Dihydroxy-2-(1-hydroxy-1-methyl-2-phenylthio-ethyl)-9-methyl-1,2,3,4-tetrahydrobenzocyclohepten-6-one], for which, in data set [1], the CC50 came out at 17.8 µM. Further, in data set [2] (setting [4]), the IC50 was 0.91 µM. Further, in data set [3] (HIV-1 RF), the “protection against the cytopathic effect” value is reported as “showed protection”. Also, in data set [3] (setting [5]), the 50% effective concentration (EC50) is 11.5 µM.
Taken in the same sequence, the figures for `Cc1cc(O)c(=O)c(O)c2c1CC(C(C)(O)CSCc1ccccc1)CC2` (mixture of isomers) [Compound 8, 2-(2-Benzylthio-1-hydroxy-1-methyl-ethyl)-5,7-dihydroxy-9-methyl-1,2,3,4-tetrahydrobenzocyclohepten-6-one] were 17.4 µM, 1.3 µM, “showed protection” and about 4.2 µM.
Consider `CCS(=O)(=O)CC(C)(O)C1CCc2c(c(C)cc(O)c(=O)c2O)C1` (mixture of isomers) [Compound 9, 2-(2-Ethanesulfonyl-1-hydroxy-1-methyl-ethyl)-5,7-dihydroxy-9-methyl-1,2,3,4-tetrahydrobenzocyclohepten-6-one], for which the CC50 in data set [1] amounted to 10.4 µM. The IC50 in data set [2] (setting [4]) was found to be 0.26 µM. Also, in data set [3] (HIV-1 RF), the “protection against the cytopathic effect” value is recorded as “slight protection” and the “Virus Replication EC50” value was <50% (<50%=protective effect less than 50% of control, i.e. weak activity). Further, the inhibition at 20 µM at HIV-1 RT RNase H (read-out: effectiveness in inhibiting PPT/U3 cleavage) was about 100%.
Turning to `Cc1cc(O)c(=O)c(O)c2c1CC(C(C)(O)CS(=O)(=O)c1ccccc1)CC2` (mixture of isomers) [Compound 11, 2-(2-benzenesulfonyl-1-hydroxy-1-methyl-ethyl)-5,7-dihydroxy-9-methyl-1,2,3,4-tetrahydrobenzocyclohepten-6-one], the 50% cytotoxic concentration (CC50) in data set [1] is over 50 µM. In data set [2] (setting [4]), the half-maximal inhibitory concentration (IC50) came out at 0.59 µM. Further, the “protection against the cytopathic effect” value in data set [3] (HIV-1 RF) is listed as “showed protection”. In data set [3] (setting [5]), the EC50 came to 21.2 µM. Besides, on HIV-1 RT RNase H, the “inhibition of PPT/U3 cleavage (in words)” value was “ineffective”.
For `Cc1cc(O)c(=O)c(O)c2c1CC(C(C)(O)CO)CC2` (mixture of isomers) [Compound 12, 2-(1,2-Dihydroxy-1-methyl-ethyl)-5,7-dihydroxy-9-methyl-1,2,3,4-tetrahydrobenzocyclohepten-6-one], in the data set with uninfected CEM-SS cells, the CC50 is over 50 µM and the “cytotoxicity (in words)” value is “not cytotoxic”. Further, in data set [2] (setting [4]), the 50% inhibitory concentration (IC50) was determined as 1.9 µM. The “protection against the cytopathic effect” value in data set [3] (HIV-1 RF) is recorded as “no protection”.
For `Cc1cc(O)c(=O)c(O)c2c1CC(C(C)O)CC2` (mixture of isomers) [Compound 13, 5,7-Dihydroxy-2-(1-hydroxy-ethyl)-9-methyl-1,2,3,4-tetrahydrobenzocyclohepten-6-one], the CC50 in data set [1] stood at 26.1 µM. Besides, the 50% inhibitory concentration (IC50) in data set [2] (setting [4]) was 0.75 µM. In addition, the “protection against the cytopathic effect” value in data set [3] (HIV-1 RF) is “showed protection”. For the same compound, the concentration giving a half-maximal response (EC50) in data set [3] (setting [5]) was found to be 6.9 µM.
Regarding `Cc1cc(O)c(=O)c(O)c2c1CC(C(C)NCc1ccccc1)CC2` (mixture of isomers) [Compound 14, 2-(1-Benzylamino-ethyl)-5,7-Dihydroxy-9-methyl-1,2,3,4-tetrahydrobenzocyclohepten-6-one], the cytotoxic concentration (CC50) in data set [1] was found to be 16.7 µM. Further, the half-maximal inhibitory concentration (IC50) in data set [2] (setting [4]) amounted to 1.1 µM. For the same compound, the “protection against the cytopathic effect” value in data set [3] (HIV-1 RF) is “showed protection”. Also, the concentration for a half-maximal effect (EC50) in data set [3] (setting [5]) is 10.6 µM. Also, the “inhibition of PPT/U3 cleavage (in words)” value against HIV-1 RT RNase H is “less active”.
For `Cc1cc(O)c(=O)c(O)c2c1CC(C(C)(O)Cn1ccnc1)CC2` (stereo not drawn) [Compound 2, 5,7-Dihydroxy-2-(1-hydroxy-2-imadazol-1-yl-1-methyl-ethyl)-9-methyl-1,2,3,4-tetrahydro benzocyclohepten-6-one], the CC50 in data set [1] is over 50 µM. For the same compound, the “protection against the cytopathic effect” value in data set [3] (HIV-1 RF) is listed as “showed protection”. Besides, in data set [3] (Human immunodeficiency virus 1, HIV-1 RF), the concentration for a half-maximal effect (EC50) stood at 42.1 µM. Besides, on HIV-1 RT RNase H, the “inhibition of PPT/U3 cleavage (in words)” value is listed as “less active”.
On to `CC(C)c1ccc(O)c(=O)c(O)c1` [β-Thujaplicinol, reference compound], for which the CC50 in the data set on uninfected CEM-SS cells turned out to be 2.3 µM. The IC50 in data set [2] was 0.21 µM. Further, in data set [3] (HIV-1 RF), the “protection against the cytopathic effect” value was “no protection” and the 50% effective concentration (EC50) was found to be 2.3 µM.

Values taken from patent US8993768B2, “Tropolone compounds for treating or preventing retroviral infection” (The United States of America, as represented by the …, priority 2011, dated 2015).
